# Ends that are not written are not given here.
# What was measured:
# Type in all cases: binding, human
# [1] = tested on: IgM antibodies in Zika acute and convalescent plasma samples; assay: Full substitution scan peptide microarray, IgM; conditions: data not shown
# Excerpt: In a second screening round of the second study, microarrays with peptide substitution scans of linear WT peptide […] (SEQ ID NO. 9) and cyclic WT peptide KDAEVTGNS (SEQ ID NO. 10) were used to determine essential, conserved and less-conserved/variable amino acid positions and to identify stronger responding peptide variants. Each amino acid position in the WT sequence was systematically exchanged by all 20 physiologic amino acids, and the resulting linear and cyclic peptides and peptide variants were printed in triplicate on the peptide substitution scan microarrays. The immunoreactivity of the peptide variants was tested by incubation with Zika acute and convalescent plasma samples. The assays were carried out in a multiplexed format with fluorescently labeled secondary anti-human IgG and anti-human IgM antibodies to simultaneously analyze the IgG and IgM profiles of each sample.
# A substitution analysis was performed with the WT peptide […] (SEQ ID No. 9) and cyclic peptide KDAEVTGNS (SEQ ID NO. 10) to determine essential, conserved and less-conserved/variable amino acid positions and to identify stronger reacting peptide variants.
# Each amino acid position in the WT sequence was systematically exchanged by all 20 physiologic amino acids, and the resulting peptides and peptide variants were printed in triplicate on peptide microarrays. […]
# [2] = tested on: IgG antibodies in sera of Zika patients; assay: Peptide microarray IgG screening, first study (ZIKV proteome / NS1, NS2a, NS2b arrays)
# Excerpt: In a first study, the inventors characterized the antibody profiles of Zika patients in a systematic manner. Therefore, they translated the proteomes of 15 different ZIKV strains (taken from the NCBI database, see Table 1 below) in the form of overlapping peptides as high-density peptide arrays and used 84 different patient and control sera to screen several thousands of potential antigens for pathogen induced antibodies.
# In addition, the inventors investigated the time-dependent antibody variation in patients (acute vs. convalescent stage). They screened patient sera from their collaboration partner in Brazil with different peptide arrays, containing the whole proteome of the ZIKV (first screening round). […] Almost no signals could be observed in control samples. […]
# In the first study, sera were diluted 1:1000 in PBS buffer with 0.05% Tween 20 pH 7.4 (PBST) and 10% blocking buffer, incubating the sera for 16 h at 4° C. and 50 RPM orbital shaking. […] Image analysis and quantification was performed with the PepSlide Analyzer software (Sicasys Software GmbH, Heidelberg, Germany).
# Samples used for the peptide array experiments of the first study were collected from individuals with acute febrile illnesses enrolled in a prospective cohort study from May 2015 to April 2016. […] For molecular viral diagnosis, quantitative real-time PCR (qRT-PCR) for Dengue (DENV) and Zika (ZIKV) viruses was performed. […]
# [3] = tested on: IgG antibodies in plasma of Zika virus patients; assay: Proteome-wide Zika virus peptide microarray, second study, IgG; conditions: plasma 1:250, acute and convalescent samples
# Excerpt: (§1) In a second more extended study, the inventors further characterized the IgG and IgM antibody profiles of Zika patients in a more comprehensive manner Therefore, they translated the proteomes of 19 Zika virus strains taken from sequencing data from Nicaragua, Colombia, Guatemala, Honduras, Mexico and Panama 100 additional Zika virus proteomes from the USA with a higher sequence heterogeneity into 4,356 different overlapping Zika virus peptides printed in duplicate on high-density peptide arrays for a high-resolution proteome-wide epitope screening.
# (§2) The inventors used plasma of 100 Zika virus patients with a confirmed dengue virus naïve status in the acute and convalescent phase (200 samples), plasma of 50 Zika virus patients with a confirmed dengue virus positive status in the acute and convalescent phase (100 samples), 50 plasma samples of dengue virus patients in the convalescent phase taken before the Zika virus outbreak as disease control and plasma of 25 individuals with a confirmed dengue virus and Zika virus negative status as healthy controls. […] The multiplexed IgG and IgM analysis was enabled by highly specific fluorescently labeled anti-human IgG and anti-human IgM secondary antibodies with different fluorescence wavelengths for emission and detection. […]
# [4] = tested on: IgM antibodies in plasma of Zika virus patients; assay: Proteome-wide Zika virus peptide microarray, second study, IgM; conditions: plasma 1:250, acute and convalescent samples
# Excerpt: as §1, §2
# [5] = tested on: IgG antibodies in sera of Zika acute and Zika convalescent patients; assay: Chemiluminescence peptide ELISA; conditions: serum dilution 1:1000, Zika acute and convalescent patient sera
# Description: The cyclic peptides and WT peptide were tested by a chemiluminescence ELISA using sera of Zika acute and Zika convalescent patients. A healthy control (HC) sera was included. The ELISA assays were performed under stringent conditions, that is at high serum dilutions (1:1000) to better evaluate the diagnostic potential of the peptide marker. The ELISA results are given in chemiluminescence units (CLUs). Samples were considered as positive, if the CLU of a respective sera is >=2 times over HC value.
# For ELISA tests, four cyclic peptides with a Biotin tag preceding the C-terminal cysteine residue were synthesized. The non-cyclic WT peptide (“WT peptide”) was synthesized with a C-terminal Biotin tag at the C-terminus, the amino acid sequence was identical to SEQ ID NO. 9.
# Peptide ELISA-Tests were performed on Streptavidin functionalized 96 well microtiterplates (Lumitrac, Greiner BioOne, Germany). The plates were coated with the respective biotinylated peptides with a biotin tag positioned at the C-terminus, preceding the C-terminal cysteine. The plates were incubated overnight at 4° C. with test sera at a dilution of 1:1000 (v/v) in PBST/10% Rockland (PBST=Phosphate buffered saline pH 7.2, 0.05% Tween 20). […] The chemiluminescence was measured after 10 minutes at 425 nm using an automated plate reader (CLARIOstar®. BMG LABTECH GmbH, Germany). […]
Substance,IgM reactivity in substitution scan [1],"IgG antibody reactivity of Zika patients against the whole ZIKV proteome ([2]; first screening round, arrays with whole proteome content, sera 1:1000)","IgG antibody reactivity, specific arrays with NS1, NS2a, NS2b content ([2]; second screening round)","IgG response, proteome-wide microarray [3]","IgM response, proteome-wide microarray [4]",IgG reactivity in chemiluminescence ELISA (positive if CLU >=2 times over HC value) [5]
"KDAEVTGNS (also: cyclic) [SEQ ID NO. 10, cyclic WT peptide on substitution scan microarrays]",not a single human sample exhibited any specific IgM reactivity,–,–,–,–,–
"NS2b: Zika virus non-structural protein NS2b, cofactor of NS3 protease, displayed as overlapping 15-mer peptides on arrays",–,most prominent interaction,clear signals,specific IgG responses,no specific IgM response,–
WEKDAEVTGNSPRLD [WT peptide],not a single human sample exhibited any specific IgM reactivity,–,–,–,–,detected Zika specific antibody responses in acute patient sera as well as in convalescent patient sera

# Source: patent publication US20200325183A1, “NS2B AS MARKER FOR ZIKA VIRUS INFECTIONS” (priority 2017, published 2020)
